Measurements reported in patent publication US20240067651A1 (Biohaven Therapeutics Ltd., priority 2019, published 2024).

Columns and labels:
[1] = Plasma Stability; format: in vitro ADME, human
Method in brief: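 Compounds incubated at 1 μM in fresh human plasma for 1 hour at 37° C, then protein-precipitated with acetonitrile/formic acid containing internal standard. Remaining parent measured by LC-MS/MS in triplicate, expressed as percent of control remaining.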

[2] = Caco-2 Permeability Assay; format: in vitro ADME, human; settings: human
Method in brief: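 Caco-2 monolayers cultured 21 days (TEER >600 […]); test article at 10 μM in HBSS/HEPES pH 7.4 transport medium, dosed apical or basolateral, ±Pgp inhibitor. Incubated 90 min at 37 °C; both compartments quantified by LC-MS/MS. Papp (A→B, B→A), efflux ratio and % recovery calculated.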

[3] = Stability in Simulated Intestinal Fluid (SIF); format: in vitro ADME; parameters: key: % parent compound remaining relative to 0-minute sample
Method in brief: (§1)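 Compound at 2 μg/mL final was incubated at 37° C with orbital shaking in SGF containing pepsin (pH 1.2) or SIF containing pancreatin (pH 6.8), sampled from 0 to 60 minutes. Parent remaining was measured by LC-MS/MS relative to the 0-minute sample; half-life came from ln(% remaining) versus time when enough points existed.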

[4] = Stability in Simulated Gastric Fluid (SGF); format: in vitro ADME; parameters: key: % parent compound remaining relative to 0-minute sample
Method in brief: as §1

[5] = Caco-2, pH 7.4, Caco-2 monolayer
[6] = simulated intestinal fluid, remaining at 1 h
[7] = simulated gastric fluid, remaining at 1 h
[8] = % remaining at 1 h in human plasma
[9] = % remaining at 1 h in simulated intestinal fluid
[10] = % remaining at 1 h in simulated gastric fluid
[11] = % remaining at 1 h, human plasma, 1 μM, 37° C.
[12] = Caco-2, pH 7.4, donor 10 μM, 90 minutes, 37° C., direction not given
[13] = % remaining at 1 h, SIF with pancreatin pH 6.8, 2 μg/mL, 37° C.
[14] = % remaining at 1 h, SGF with pepsin pH 1.2, 2 μg/mL, 37° C.

With `CC(C)OCCn1c(=S)[nH]c(=O)c2c1ccn2COC(=O)CCCOC(=O)[C@@H](Cc1ccccc1)NC(=O)OC(C)(C)C` [Example 361, {4-oxo-1-[2-(propan-2-yloxy)ethyl]-2-sulfanylidene-1H,2H,3H,4H,5H-pyrrolo[3,2-d]pyrimidin-5-yl}methyl 4-{[(2R)-2-{[(tert-butoxy)carbonyl]amino}-3-phenylpropanoyl]oxy}butanoate] the “human Plasma stability” value ([1]; human plasma, remaining at 1 h) was 8% remaining, the Papp at 90 min, 10 µM [2, 5] was < 0.31 ×10⁻⁶ cm/s and the SIF [3, 6] was 9% remaining. For the same compound, the SGF [4, 7] was 95% remaining.
With `CC(C)OCCn1c(=S)[nH]c(=O)c2c1ccn2COC(=O)CCCCOC(=O)[C@@H](NC(=O)OC(C)(C)C)C(C)C` [Example 333, {4-oxo-1-[2-(propan-2-yloxy)ethyl]-2-sulfanylidene-1H,2H,3H,4H,5H-pyrrolo[3,2-d]pyrimidin-5-yl}methyl 5-{[(2S)-2-{[(tert-butoxy)carbonyl]amino}-3-methylbutanoyl]oxy}pentanoate] the “human Plasma stability” value ([1]; % remaining @ 1 h) was 5% @ 1 h, the Papp at 90 min, 10 µM ([2]; Caco-2, pH 7.4) was < 0.072 ×10⁻⁶ cm/s and the SIF ([3]; % remaining @ 1 h) was 4% @ 1 h. For the same compound, the SGF ([4]; % remaining @ 1 h) was 98% @ 1 h.
In the case of `CC(C)OCCn1c(=S)[nH]c(=O)c2c1ccn2COC(=O)OCCOCCN.O=C(O)C(F)(F)F` [Example 123], the “human Plasma stability” value [1, 8] is reported as 65% remaining, the Papp at 90 min, 10 µM [2, 5] is reported as 2.44 ×10⁻⁶ cm/s and the SIF [3, 9] is reported as 1% remaining at. The SGF [4, 10] was 97% remaining.
In the case of `CC(C)OCCn1c(=S)[nH]c(=O)c2c1ccn2COC(=O)CCNC(=O)[C@H](Cc1ccccc1)NC(=O)OCC1c2ccccc2-c2ccccc21.O=C(O)C(F)(F)F` [Example 23], the “human Plasma stability” value [1, 8] is reported as 92% remaining, the Papp at 90 min, 10 µM [2, 5] is reported as 1.94 ×10⁻⁶ cm/s and the SIF [3, 9] is reported as 84% remaining. It also gave an SGF [4, 10] of 93% remaining.
In the case of `CC(C)C[C@@H](N)C(=O)OCn1c(=O)c2c(ccn2COC(=O)[C@H](N)CC(C)C)n(CCOC(C)C)c1=S.O=C(O)C(F)(F)F.O=C(O)C(F)(F)F` [Example 326, bis(trifluoroacetic acid) [3-({[(2R)-2-amino-4-methylpentanoyl]oxy}methyl)-4-oxo-1-[2-(propan-2-yloxy)ethyl]-2-sulfanylidene-1H,2H,3H,4H,5H-pyrrolo [3,2-d]pyrimidin-5-yl]methyl (2R)-2-amino-4-methylpentanoate], the “human Plasma stability” value ([1]; % remaining @ 1 h) is reported as 17%@ 1 h, the Papp at 90 min, 10 µM ([2]; Caco-2, pH 7.4) is reported as < 0.338 ×10⁻⁶ cm/s and the SIF ([3]; % remaining @ 1 h) is reported as 9%@ 1 h. It also gave an SGF ([4]; % remaining @ 1 h) of 97%@ 1 h.
For `CC(C)OCCn1c(SCOC(=O)C2CCNCC2)nc(=O)c2c1ccn2COC(=O)CCC(=O)O` [Example 133], the “human Plasma stability” value [1, 8] was 7% remaining, the Papp at 90 min, 10 µM [2, 5] was < 0.198 ×10⁻⁶ cm/s and the SIF [3, 9] was 97% remaining. It also gave an SGF [4, 10] of 82% remaining.
With `CC(C)OCCn1c(SC(C)OC(=O)N(C)c2ncccc2COC(=O)CN(C)C(=O)OC(C)(C)C)nc(=O)c2[nH]ccc21` (stereo not shown) [Example 212, (tert-Butoxycarbonyl-methyl-amino)-acetic acid 2-({1-[1-(2-isopropoxy-ethyl)-4-oxo-4,5-dihydro-1H-pyrrolo[3,2-d]pyrimidin-2-ylsulfanyl]-ethoxycarbonyl}-methyl-amino)-pyridin-3-ylmethyl ester] the “human Plasma stability” value [1, 11] was 97%, the Papp at 90 min, 10 µM [2, 12] was 0.87 ×10⁻⁶ cm/s and the SIF [3, 13] was 97%. For the same compound, the SGF [4, 14] was 89%.
In the case of `CC(C)OCCn1c(SCOC(=O)N(C)c2cccc(F)c2)nc(=O)c2[nH]ccc21` [Example 210, ({4-oxo-1-[2-(propan-2-yloxy)ethyl]-1H,4H,5H-pyrrolo[3,2-d]pyrimidin-2-yl}sulfanyl)methyl N-(3-fluorophenyl)-N-methylcarbamate], the “human Plasma stability” value [1, 11] is reported as 97% remaining, the Papp at 90 min, 10 µM [2, 12] is reported as 18.3 ×10⁻⁶ cm/s and the SIF [3, 13] is reported as 97% remaining. The SGF [4, 14] was 100% remaining.
For `CC(C)OCCn1c(=S)[nH]c(=O)c2c1ccn2COC(=O)[C@H](N)Cc1ccccc1.O=C(O)C(F)(F)F` [Example 311, trifluoroacetic acid {4-oxo-1-[2-(propan-2-yloxy)ethyl]-2-sulfanylidene-1H,2H,3H,4H,5H-pyrrolo[3,2-d]pyrimidin-5-yl}methyl (2R)-2-amino-3-phenylpropanoate], the “human Plasma stability” value ([1]; % remaining @ 1 h) was 4% @ 1 h, the Papp at 90 min, 10 µM ([2]; Caco-2, pH 7.4) was 5.44 ×10⁻⁶ cm/s and the SIF ([3]; % remaining @ 1 h) was 7% @ 1 h. The SGF ([4]; % remaining @ 1 h) was 98% @ 1 h.
With `CC(C)OCCn1c(=S)n(COC(=O)[C@H](N)Cc2ccccc2)c(=O)c2c1ccn2COC(=O)[C@H](N)Cc1ccccc1.O=C(O)C(F)(F)F.O=C(O)C(F)(F)F` [Example 313, bis(trifluoroacetic acid) [3-({[(2R)-2-amino-3-phenylpropanoyl]oxy}methyl)-4-oxo-1-[2-(propan-2-yloxy)ethyl]-2-sulfanylidene-1H,2H,3H,4H,5H-pyrrolo[3,2-d]pyrimidin-5-yl]methyl (2R)-2-amino-3-phenylpropanoate] the “human Plasma stability” value ([1]; % remaining @ 1 h) was 99% @ 1 h, the Papp at 90 min, 10 µM ([2]; Caco-2, pH 7.4) was 0.49 ×10⁻⁶ cm/s and the SIF ([3]; % remaining @ 1 h) was 51% @ 1 h. For the same compound, the SGF ([4]; % remaining @ 1 h) was 88% @ 1 h.
With `CSCC[C@H](N)C(=O)OCCCCC(=O)OCn1ccc2c1c(=O)[nH]c(=S)n2CCOC(C)C.O=C(O)C(F)(F)F` [Example 353, trifluoroacetic acid {4-oxo-1-[2-(propan-2-yloxy)ethyl]-2-sulfanylidene-1H,2H,3H,4H,5H-pyrrolo[3,2-d]pyrimidin-5-yl}methyl 5-{[(2S)-2-amino-4-(methylsulfanyl)butanoyl]oxy}pentanoate] the “human Plasma stability” value ([1]; human plasma, remaining at 1 h) was 3% remaining, the Papp at 90 min, 10 µM [2, 5] was 0.549 ×10⁻⁶ cm/s and the SIF [3, 6] was 66% remaining. The SGF [4, 7] was 33% remaining.
With `CC(C)OCCn1c(=S)[nH]c(=O)c2c1ccn2COC(=O)CCNC(=O)[C@H](CCc1ccccc1)NC(=O)OC(C)(C)C.O=C(O)C(F)(F)F` [Example 19] the “human Plasma stability” value [1, 8] was 42% remaining, the Papp at 90 min, 10 µM [2, 5] was 11.7 ×10⁻⁶ cm/s and the SIF [3, 9] was 57% remaining. The SGF [4, 10] was 82% remaining.
For `CC(C)C[C@@H](N)C(=O)OCCC(=O)OCn1ccc2c1c(=O)[nH]c(=S)n2CCOC(C)C.O=C(O)C(F)(F)F` [Example 368, trifluoroacetic acid 3-oxo-3-({4-oxo-1-[2-(propan-2-yloxy)ethyl]-2-sulfanylidene-1H,2H,3H,4H,5H-pyrrolo[3,2-d]pyrimidin-5-yl}methoxy)propyl (2R)-2-amino-4-methylpentanoate], the “human Plasma stability” value ([1]; human plasma, remaining at 1 h) was 1% remaining, the Papp at 90 min, 10 µM [2, 5] was 0.12 ×10⁻⁶ cm/s and the SIF [3, 6] was 1% remaining. For the same compound, the SGF [4, 7] was 100% remaining.
For `CC(C)C[C@H](N)C(=O)OCn1ccc2c1c(=O)[nH]c(=S)n2CCOC(C)C.O=C(O)C(F)(F)F` [Example 320, trifluoroacetic acid {4-oxo-1-[2-(propan-2-yloxy)ethyl]-2-sulfanylidene-1H,2H,3H,4H,5H-pyrrolo[3,2-d]pyrimidin-5-yl}methyl (2S)-2-amino-4-methylpentanoate], the “human Plasma stability” value ([1]; % remaining @ 1 h) was 98%@ 1 h, the Papp at 90 min, 10 µM ([2]; Caco-2, pH 7.4) was < 0.259 ×10⁻⁶ cm/s and the SIF ([3]; % remaining @ 1 h) was 42%@ 1 h. For the same compound, the SGF ([4]; % remaining @ 1 h) was 48%@ 1 h.
With `CC(C)OCCn1c(=S)[nH]c(=O)c2c1ccn2COC(=O)[C@@H]1CCCN1C(=O)OC(C)(C)C` [Example 1, (S)-tert-Butyl (1,2,3,4-tetrahydro-1-(2-isopropoxyethyl)-4-oxo-2-thioxopyrrolo[3,2-d]pyrimidin-5-yl)methyl pyrrolidine-1,2-dicarboxylate] the “human Plasma stability” value [1, 11] was 92%, the Papp at 90 min, 10 µM [2, 12] was 37.1 ×10⁻⁶ cm/s and the SIF [3, 13] was 94%. The SGF [4, 14] was 99%.
For `CC(C)OCCn1c(SCOC(=O)NCc2ccccc2)nc(=O)c2[nH]ccc21` [Example 192], the “human Plasma stability” value ([1]; % remaining at 1 h in human plasma, the 15th table) was 97% remaining, the Papp at 90 min, 10 µM ([2]; Caco-2, pH 7.4, Caco-2 monolayer, the 15th table) was 3.84 ×10⁻⁶ cm/s and the SIF ([3]; % remaining at 1 h in simulated intestinal fluid, the 15th table) was 50% remaining. The SGF ([4]; % remaining at 1 h in simulated gastric fluid, the 15th table) was 100% remaining.
With `CCN(C)C(=O)OCSc1nc(=O)c2[nH]ccc2n1CCOC(C)C` [Example 163] the “human Plasma stability” value ([1]; % @ 1 h (remaining) in human plasma) was 90% @ 1 h, the Papp at 90 min, 10 µM [2, 5] was 4.2 ×10⁻⁶ cm/s and the SIF ([3]; % @ 1 h (remaining) in simulated intestinal fluid) was 96% @ 1 h. It also gave an SGF ([4]; % @ 1 h (remaining) in simulated gastric fluid) of 99% @ 1 h.
With `COCCOCCOC(=O)OCSc1nc(=O)c2c(ccn2COC(=O)OCCOCCOC)n1CCOC(C)C` [Example 104, (2-{[{{[2-(2-methoxyethoxy)ethoxy]carbonyl}oxy)methyl]sulfanyl}-4-oxo-1-[2-(propan-2-yloxy)ethyl]-1H,4H,5H-pyrrolo[3,2-d]pyrimidin-5-yl)methyl 2-(2-methoxyethoxy)ethyl carbonate] the “human Plasma stability” value [1, 11] was 18%, the Papp at 90 min, 10 µM ([2]; Caco-2, pH 7.4, no unit printed at the place (tables the 9th table and the 10th table have no head)) was 0.276 ×10⁻⁶ cm/s and the SIF [3, 13] was 70%. The SGF [4, 14] was 96%.
In the case of `CCCCCCOC(=O)OCSc1nc(=O)c2c(ccn2COC(=O)OCCCCCC)n1CCOC(C)C` [Example 214], the “human Plasma stability” value ([1]; % remaining at 1 h in human plasma, the 17th table) is reported as 77% remaining, the Papp at 90 min, 10 µM ([2]; Caco-2, pH 7.4, Caco-2 monolayer, the 17th table) is reported as 1.63 ×10⁻⁶ cm/s and the SIF ([3]; % remaining at 1 h in simulated intestinal fluid, the 17th table) is reported as 2% remaining. For the same compound, the SGF ([4]; % remaining at 1 h in simulated gastric fluid, the 17th table) was 80% remaining.
